The results in this text go back to ChEMBL document CHEMBL1131036, “Structure-based design, synthesis, and biological evaluation of irreversible human rhinovirus 3C protease inhibitors. 1. Michael acceptor structure-activity studies” (J Med Chem, 1998).

The structures appear in SMILES notation.

Assay [1] concerns HeLa. The assay can be described thus: Formazan production in HRV-14 virus infected cells. Format: functional, cell-based. As to conditions: Homo sapiens.
Assay [2] has as its system HeLa. The assay can be described thus: Concentration of compound that decreased the percentage of formazan production in treated HRV-14 virus infected cells to that produced in uninfected cells. Format: functional. As to conditions: Homo sapiens.
The target of assay [3] is T1, Human rhinovirus A protease (Human rhinovirus sp.) (UniProt Q4U254).
T1 sequence (whole entry): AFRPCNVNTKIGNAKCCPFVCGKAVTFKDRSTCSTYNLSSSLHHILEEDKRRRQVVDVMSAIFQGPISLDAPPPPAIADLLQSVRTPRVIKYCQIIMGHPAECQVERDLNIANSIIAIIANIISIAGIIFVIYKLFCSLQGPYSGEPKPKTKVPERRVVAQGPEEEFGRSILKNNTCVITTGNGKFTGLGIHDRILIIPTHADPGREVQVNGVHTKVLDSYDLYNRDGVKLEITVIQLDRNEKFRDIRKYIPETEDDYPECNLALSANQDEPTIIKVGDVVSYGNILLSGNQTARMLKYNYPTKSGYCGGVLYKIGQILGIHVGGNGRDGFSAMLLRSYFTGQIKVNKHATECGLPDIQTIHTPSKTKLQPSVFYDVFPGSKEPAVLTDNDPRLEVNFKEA
The assay can be described thus: Catalytic rate constant (Kobs/[I]) evaluated against human rhinovirus (HRV) serotype 14 3C Protease (3CP). As to conditions: Human rhinovirus B (HRV-14).

In the assay on HeLa [1], `CC(C)C[C@H](NC(=O)OCc1ccccc1)C(=O)N[C@@H](Cc1ccccc1)C(=O)N[C@H](/C=C1\CCCOC1=O)CCC(N)=O` gave an EC50 of 16 µM. In the assay on HeLa [2], this compound returned a CC50 greater than 100 µM.
For `CC(C)C[C@H](NC(=O)OCc1ccccc1)C(=O)N[C@@H](Cc1ccccc1)C(=O)N[C@H](/C=C/C(=O)OCC(C)(C)C)CCC(N)=O`, the EC50 in the assay on HeLa [1] was determined as 0.5 µM. This compound displayed a CC50 with HeLa [2] greater than 100 µM. Besides, the K obs / 1 in assay [3] came to 9800 M⁻¹ s⁻¹.
Taken in the same sequence, the figures for `CC(C)C[C@H](NC(=O)OCc1ccccc1)C(=O)N[C@@H](Cc1ccccc1)C(=O)N[C@H](/C=C/C(=O)n1ccc2ccccc21)CCC(N)=O` were 1.8 µM, 29 µM and 53000 M⁻¹ s⁻¹.
For `CC(C)C[C@H](NC(=O)OCc1ccccc1)C(=O)N[C@@H](Cc1ccccc1)C(=O)N[C@H](/C=C/C(=O)Nc1ccccc1)CCC(N)=O`, in that order: greater than 320 µM, greater than 320 µM and 200 M⁻¹ s⁻¹.
In the case of `CC(C)C[C@H](NC(=O)OCc1ccccc1)C(=O)N[C@@H](Cc1ccccc1)C(=O)N[C@H](/C=C/C(=O)N1CCCO1)CCC(N)=O`, in the assay with HeLa [1], the EC50 worked out at 45 µM. In the assay with HeLa [2], this compound had a CC50 greater than 320 µM. Moreover, the K obs / 1 in assay [3] is 14000 M⁻¹ s⁻¹.
Taken in the same sequence, the figures for `COc1ccc(C(=O)/C=C/[C@H](CCC(N)=O)NC(=O)[C@H](Cc2ccccc2)NC(=O)[C@H](CC(C)C)NC(=O)OCc2ccccc2)cc1` were 22 µM, 100 µM and 150000 M⁻¹ s⁻¹.
Taken in the same sequence, the figures for `CC(C)C[C@H](NC(=O)OCc1ccccc1)C(=O)N[C@@H](Cc1ccccc1)C(=O)N[C@H](/C=C/C(=O)N(C)C)CCC(N)=O` were 56 µM, greater than 100 µM and 1300 M⁻¹ s⁻¹.
On to `CC(C)C[C@H](NC(=O)OCc1ccccc1)C(=O)N[C@@H](Cc1ccccc1)C(=O)N[C@H](/C=C/c1cocn1)CCC(N)=O`, for which the EC50 in the assay on HeLa [1] was greater than 100 µM. In addition, the CC50 in the assay with HeLa [2] was greater than 100 µM. The compound further gave a K obs / 1 in assay [3] of 0 M⁻¹ s⁻¹.
Compound `CC(C)C[C@H](NC(=O)OCc1ccccc1)C(=O)N[C@@H](Cc1ccccc1)C(=O)N[C@H](/C=C/C(=O)n1cccc1)CCC(N)=O` displayed an EC50 in the assay with HeLa [1] of 1.4 µM. Further, in the assay on HeLa [2], it took 6.3 µM to reach half-maximal cytotoxicity (CC50). The compound further gave a K obs / 1 in assay [3] of 400000 M⁻¹ s⁻¹.
Taken in the same sequence, the figures for `CC(C)C[C@H](NC(=O)OCc1ccccc1)C(=O)N[C@@H](Cc1ccccc1)C(=O)N[C@H](/C=C/C#N)CCC(N)=O` were 18 µM, greater than 320 µM and 0 M⁻¹ s⁻¹.
Taken in the same sequence, the figures for `CC(C)C[C@H](NC(=O)OCc1ccccc1)C(=O)N[C@@H](Cc1ccccc1)C(=O)N[C@H](/C=C/C(=O)N1CCc2cc(Br)ccc21)CCC(N)=O` were 47 µM, greater than 320 µM and 5800 M⁻¹ s⁻¹.
With `CC(C)C[C@H](NC(=O)OCc1ccccc1)C(=O)N[C@@H](Cc1ccccc1)C(=O)N[C@H](/C=C/C(=O)c1ccccc1)CCC(N)=O`, in the assay with HeLa [1], it took 4 µM to reach a half-maximal effect (EC50). Further, half-maximal cytotoxicity with HeLa [2] (CC50) was put at 16 µM. The compound also showed a K obs / 1 in assay [3] of 500000 M⁻¹ s⁻¹.
For `CC(C)C[C@H](NC(=O)OCc1ccccc1)C(=O)N[C@@H](Cc1ccccc1)C(=O)N[C@H](/C=C/C(=O)N1CCC(O)C1)CCC(N)=O` (stereo partly drawn), in that order: greater than 320 µM, greater than 320 µM and 1200 M⁻¹ s⁻¹.
Taken in the same sequence, the figures for `CC(C)C[C@H](NC(=O)OCc1ccccc1)C(=O)N[C@@H](Cc1ccccc1)C(=O)N[C@H](/C=C/C(=O)N1CCCc2ccccc21)CCC(N)=O` were 126 µM, greater than 320 µM and 1000 M⁻¹ s⁻¹.
Taken in the same sequence, the figures for `CC(C)C[C@H](NC(=O)OCc1ccccc1)C(=O)N[C@@H](Cc1ccccc1)C(=O)N[C@H](/C=C/C(=O)c1ccc(C#N)cc1)CCC(N)=O` were 50 µM, greater than 320 µM and 200000 M⁻¹ s⁻¹.
Regarding `CCOC(=O)/C(F)=C/[C@H](CCC(N)=O)NC(=O)[C@H](Cc1ccccc1)NC(=O)[C@H](CC(C)C)NC(=O)OCc1ccccc1`, the EC50 with HeLa [1] was greater than 320 µM. In addition, the CC50 in the assay with HeLa [2] is greater than 320 µM. The K obs / 1 in assay [3] came to 60 M⁻¹ s⁻¹.
As for `CC(C)C[C@H](NC(=O)OCc1ccccc1)C(=O)N[C@@H](Cc1ccccc1)C(=O)N[C@H](/C=C/C(=O)NC1CCCC1)CCC(N)=O`, the EC50 in the assay on HeLa [1] is greater than 100 µM. The cytotoxic concentration (CC50) in the assay with HeLa [2] is greater than 320 µM. The compound further returned a K obs / 1 in assay [3] of 250 M⁻¹ s⁻¹.
Taken in the same sequence, the figures for `COc1ccc2c(c1)CCN2C(=O)/C=C/[C@H](CCC(N)=O)NC(=O)[C@H](Cc1ccccc1)NC(=O)[C@H](CC(C)C)NC(=O)OCc1ccccc1` were greater than 320 µM, greater than 320 µM and 3400 M⁻¹ s⁻¹.
For `COC(=O)/C=C/[C@H](CCC(N)=O)NC(=O)[C@H](Cc1ccccc1)NC(=O)[C@H](CC(C)C)NC(=O)OCc1ccccc1`, in that order: 1.3 µM, greater than 320 µM and 20000 M⁻¹ s⁻¹.
Compound `CC(C)C[C@H](NC(=O)OCc1ccccc1)C(=O)N[C@@H](Cc1ccccc1)C(=O)N[C@H](/C=C/c1ccccn1)CCC(N)=O` returned an EC50 in the assay on HeLa [1] greater than 100 µM. The CC50 with HeLa [2] was greater than 100 µM. This compound also gave a K obs / 1 in assay [3] of 120 M⁻¹ s⁻¹.
`CSc1cccc2c1N(C(=O)/C=C/[C@H](CCC(N)=O)NC(=O)[C@H](Cc1ccccc1)NC(=O)[C@H](CC(C)C)NC(=O)OCc1ccccc1)CC2` had a K obs / 1 in assay [3] of 300 M⁻¹ s⁻¹.
As to `CC(C)C[C@H](NC(=O)OCc1ccccc1)C(=O)N[C@@H](Cc1ccccc1)C(=O)N[C@H](/C=C/C(=O)O)CCC(N)=O`, in the assay on HeLa [1], the EC50 is greater than 100 µM. In the assay with HeLa [2], this compound displayed a CC50 greater than 320 µM. The compound also came in with a K obs / 1 in assay [3] of 30 M⁻¹ s⁻¹.
`CC(C)C[C@H](NC(=O)OCc1ccccc1)C(=O)N[C@@H](Cc1ccccc1)C(=O)N[C@H](/C=C/C(=O)N1CCc2cc(F)ccc21)CCC(N)=O` came in with an EC50 with HeLa [1] of 11 µM. Also, the cytotoxic concentration (CC50) in the assay with HeLa [2] is greater than 320 µM. The K obs / 1 in assay [3] was 5400 M⁻¹ s⁻¹.
In the case of `CCOP(=O)(/C=C/[C@H](CCC(N)=O)NC(=O)[C@H](Cc1ccccc1)NC(=O)[C@H](CC(C)C)NC(=O)OCc1ccccc1)OCC`, in the assay with HeLa [1], the EC50 was greater than 320 µM. Further, the CC50 with HeLa [2] is greater than 320 µM. For the same compound, the K obs / 1 in assay [3] worked out at 0 M⁻¹ s⁻¹.
In the assay on HeLa [1], `CC(C)C[C@H](NC(=O)OCc1ccccc1)C(=O)N[C@@H](Cc1ccccc1)C(=O)N[C@H](/C=C/c1ccno1)CCC(N)=O` displayed an EC50 greater than 320 µM. In the assay with HeLa [2], the CC50 was greater than 320 µM. The compound further displayed a K obs / 1 in assay [3] of 600 M⁻¹ s⁻¹.
Consider `CC(C)C[C@H](NC(=O)OCc1ccccc1)C(=O)N[C@@H](Cc1ccccc1)C(=O)N[C@H](/C=C/C(=O)N(C)c1ccccc1)CCC(N)=O`, for which the response in the assay with HeLa [1] was half-maximal at 158 µM (EC50). In the assay with HeLa [2], this compound came in with a CC50 greater than 320 µM. The same compound had a K obs / 1 in assay [3] of 580 M⁻¹ s⁻¹.
For `CC(C)C[C@H](NC(=O)OCc1ccccc1)C(=O)N[C@@H](Cc1ccccc1)C(=O)N[C@H](/C=C/C(=O)OCc1ccccc1)CCC(N)=O`, in that order: 3.2 µM, greater than 100 µM and 39400 M⁻¹ s⁻¹.
For `CCNC(=O)/C=C/[C@H](CCC(N)=O)NC(=O)[C@H](Cc1ccccc1)NC(=O)[C@H](CC(C)C)NC(=O)OCc1ccccc1`, in that order: greater than 320 µM, greater than 320 µM and 350 M⁻¹ s⁻¹.
For `CC(C)C[C@H](NC(=O)OCc1ccccc1)C(=O)N[C@@H](Cc1ccccc1)C(=O)N[C@H](/C=C/C(=O)N1CCc2cccc(Cl)c21)CCC(N)=O`, in that order: 56 µM, greater than 320 µM and 5400 M⁻¹ s⁻¹.
`CCN(CC)c1ccc(C(=O)/C=C/[C@H](CCC(N)=O)NC(=O)[C@H](Cc2ccccc2)NC(=O)[C@H](CC(C)C)NC(=O)OCc2ccccc2)cc1` displayed an EC50 in the assay with HeLa [1] greater than 25 µM. The compound also yielded a CC50 in the assay with HeLa [2] of 25 µM. In assay [3], this compound had a K obs / 1 of 4500 M⁻¹ s⁻¹.
Taken in the same sequence, the figures for `CC(C)C[C@H](NC(=O)OCc1ccccc1)C(=O)N[C@@H](Cc1ccccc1)C(=O)N[C@H](/C=C/S(C)(=O)=O)CCC(N)=O` were greater than 320 µM, greater than 320 µM and 160 M⁻¹ s⁻¹.
Taken in the same sequence, the figures for `CC(C)C[C@H](NC(=O)OCc1ccccc1)C(=O)N[C@@H](Cc1ccccc1)C(=O)N[C@H](/C=C/C(=O)N1CCc2ccc(S(C)(=O)=O)cc21)CCC(N)=O` were greater than 320 µM, greater than 320 µM and 12900 M⁻¹ s⁻¹.
For `COC(=O)N1CC/C(=C\[C@H](CCC(N)=O)NC(=O)[C@H](Cc2ccccc2)NC(=O)[C@H](CC(C)C)NC(=O)OCc2ccccc2)C1=O`, in that order: 28 µM, greater than 100 µM and 8400 M⁻¹ s⁻¹.
In the assay on HeLa [1], `CC(C)C[C@H](NC(=O)OCc1ccccc1)C(=O)N[C@@H](Cc1ccccc1)C(=O)N[C@H](/C=C/C(=O)N1CCc2ccc(S(=O)(=O)N3CCCC3)cc21)CCC(N)=O` had an EC50 greater than 320 µM. This compound also displayed a CC50 in the assay on HeLa [2] greater than 320 µM. This compound yielded a K obs / 1 in assay [3] of 22700 M⁻¹ s⁻¹.
As to `CC(C)C[C@H](NC(=O)OCc1ccccc1)C(=O)N[C@@H](Cc1ccccc1)C(=O)N[C@H](/C=C/C(=O)N1CCc2cccc(S(C)(=O)=O)c21)CCC(N)=O`, the EC50 in the assay on HeLa [1] is greater than 320 µM. For the same compound, in the assay on HeLa [2], the CC50 is greater than 320 µM. The compound further came in with a K obs / 1 in assay [3] of less than 1000 M⁻¹ s⁻¹.
The compound `CO/N=C/C=C/[C@H](CCC(N)=O)NC(=O)[C@H](Cc1ccccc1)NC(=O)[C@H](CC(C)C)NC(=O)OCc1ccccc1` showed an EC50 with HeLa [1] of 100 µM. Moreover, the CC50 with HeLa [2] is greater than 320 µM. Also, the K obs / 1 in assay [3] is 0 M⁻¹ s⁻¹.
For `CC(C)C[C@H](NC(=O)OCc1ccccc1)C(=O)N[C@@H](Cc1ccccc1)C(=O)N[C@H](/C=C/C(=O)N1CCCCO1)CCC(N)=O`, the EC50 in the assay with HeLa [1] was found to be 16 µM. In the assay on HeLa [2], this compound came in with a CC50 of 100 µM. The same compound had a K obs / 1 in assay [3] of 19000 M⁻¹ s⁻¹.
